Experimental data as given in ChEMBL document CHEMBL1201862, “PubChem BioAssay data set” (2004).
“And” between values parts separate entries of the source, which are not always exact repeats. Identical values can stand only once.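 Method: 48-hour compound exposure of cells in 96-well plates, five concentrations, linear interpolation of endpoints. GI50 is the concentration that inhibits growth by half.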 The source made the active and inactive calls. Rule as the data show it: active = GI50 up to about 1.1 µM and inactive = higher.

Experiments:
Experiment in all cases: DTP human tumour cell line panel, 48 h
786-0 = test system: 786-0
A498 = test system: A498
A549 = test system: A549
ACHN = test system: ACHN
CAKI-1 = test system: CAKI-1
CCRF-CEM = test system: CCRF-CEM
COLO 205 = test system: COLO 205
DU-145 = test system: DU-145
EKVX = test system: EKVX
HCC 2998 = test system: HCC 2998
HCT-116 = test system: HCT-116
HCT-15 = test system: HCT-15
HL-60 = test system: HL-60
HOP-62 = test system: HOP-62
HOP-92 = test system: HOP-92
HT-29 = test system: HT-29
Hs-578T = test system: Hs-578T
IGROV-1 = test system: IGROV-1
KM12 = test system: KM12
LOX IMVI = test system: LOX IMVI
M14 = test system: M14
MCF7 = test system: MCF7
MDA-MB-231 = test system: MDA-MB-231
MDA-MB-435 = test system: MDA-MB-435
Malme-3M = test system: Malme-3M
NCI-H226 = test system: NCI-H226
NCI-H23 = test system: NCI-H23
NCI-H522 = test system: NCI-H522
NCI/ADR-RES = test system: NCI/ADR-RES
OVCAR-5 = test system: OVCAR-5
OVCAR-8 = test system: OVCAR-8
PC-3 = test system: PC-3
RPMI-8226 = test system: RPMI-8226
RXF 393 = test system: RXF 393
SF-268 = test system: SF-268
SF-295 = test system: SF-295
SF-539 = test system: SF-539
SK-MEL-28 = test system: SK-MEL-28
SK-MEL-2 = test system: SK-MEL-2
SK-MEL-5 = test system: SK-MEL-5
SK-OV-3 = test system: SK-OV-3
SN12C = test system: SN12C
SNB-19 = test system: SNB-19
SNB-75 = test system: SNB-75
SR = test system: SR
SW-620 = test system: SW-620
T47D = test system: T47D
TK-10 = test system: TK-10
U-251 = test system: U-251
UACC-257 = test system: UACC-257
UACC-62 = test system: UACC-62
UO-31 = test system: UO-31
K562 = test system: K562
MOLT-4 = test system: MOLT-4
NCI-H460 = test system: NCI-H460
OVCAR-3 = test system: OVCAR-3

`N#Cc1c(N)oc(-c2cccc([N+](=O)[O-])c2)c1C#N` was tested, and the GI50 (786-0) was 27.7 µM (inactive), the GI50 (A498) was 21 µM (inactive) and the GI50 (A549) was > 100 µM (inactive). The GI50 (ACHN) was 19.1 µM (inactive), the GI50 (CAKI-1) was 20.7 µM (inactive) and the GI50 (CCRF-CEM) was 27 µM (inactive). The GI50 (COLO 205) was 20.9 µM (inactive), the GI50 (DU-145) was > 100 µM (inactive) and the GI50 (EKVX) was 12.9 µM (inactive). The GI50 (HCC 2998) was 19.5 µM (inactive), the GI50 (HCT-116) was 33.7 µM (inactive) and the GI50 (HCT-15) was 16.1 µM. For the same molecule, the GI50 (HL-60) was 28.5 µM (inactive), the GI50 (HOP-62) was > 10 µM (inactive) and the GI50 (HOP-92) was 17.4 µM (inactive). For the same molecule, the GI50 (HT-29) was 20 µM (inactive), the GI50 (Hs-578T) was 32.8 µM (inactive) and the GI50 (IGROV-1) was 23.6 µM (inactive). The GI50 (KM12) was > 10 µM (inactive), the GI50 (LOX IMVI) was 31.6 µM (inactive) and the GI50 (M14) was 46.9 µM (inactive). For the same molecule, the GI50 (MCF7) was 53.3 µM (inactive), the GI50 (MDA-MB-231) was 37.1 µM (inactive) and the GI50 (MDA-MB-435) was 31.2 µM (inactive). The GI50 (Malme-3M) was 24.4 µM (inactive), the GI50 (NCI-H226) was 43.2 µM (inactive) and the GI50 (NCI-H23) was 21.4 µM (inactive). The GI50 (NCI-H522) was 23.7 µM (inactive), the GI50 (NCI/ADR-RES) was 30.5 µM (inactive) and the GI50 (OVCAR-5) was 82.4 µM (inactive). For the same molecule, the GI50 (OVCAR-8) was 21.1 µM (inactive), the GI50 (PC-3) was 62.8 µM (inactive) and the GI50 (RPMI-8226) was 22 µM (inactive). The GI50 (RXF 393) was 24.8 µM (inactive), the GI50 (SF-268) was 31.4 µM (inactive) and the GI50 (SF-295) was > 100 µM (inactive). For the same molecule, the GI50 (SF-539) was 23.2 µM (inactive), the GI50 (SK-MEL-28) was 19.5 µM (inactive) and the GI50 (SK-MEL-2) was 44.5 µM (inactive). For the same molecule, the GI50 (SK-MEL-5) was 19.6 µM (inactive), the GI50 (SK-OV-3) was > 100 µM (inactive) and the GI50 (SN12C) was 38.6 µM (inactive). The GI50 (SNB-19) was 31.6 µM (inactive), the GI50 (SNB-75) was 21.9 µM (inactive) and the GI50 (SR) was 46.6 µM (inactive). The GI50 (SW-620) was 24.1 µM (inactive), the GI50 (T47D) was 50 µM (inactive) and the GI50 (TK-10) was 22.1 µM (inactive). For the same molecule, the GI50 (U-251) was 27.5 µM (inactive), the GI50 (UACC-257) was 21.8 µM (inactive) and the GI50 (UACC-62) was 30 µM (inactive). For the same molecule, the GI50 (UO-31) was 16.7 µM (inactive).

In the case of `Cc1ncc([N+](=O)[O-])n1CC(O)Cn1ccnc1[N+](=O)[O-]` (stereo not drawn), the GI50 (786-0) is reported as > 100 µM (inactive), the GI50 (A498) is reported as > 100 µM (inactive) and the GI50 (A549) is reported as > 100 µM (inactive). For the same molecule, the GI50 (ACHN) was > 100 µM (inactive), the GI50 (CCRF-CEM) was > 100 µM (inactive) and the GI50 (EKVX) was > 100 µM (inactive). The GI50 (HCC 2998) was > 100 µM (inactive), the GI50 (HCT-116) was > 100 µM (inactive) and the GI50 (HCT-15) was > 100 µM. The GI50 (HL-60) was > 100 µM (inactive), the GI50 (HOP-62) was > 100 µM (inactive) and the GI50 (HT-29) was > 100 µM (inactive). The GI50 (Hs-578T) was > 100 µM (inactive), the GI50 (K562) was > 100 µM (inactive) and the GI50 (KM12) was > 100 µM (inactive). For the same molecule, the GI50 (MCF7) was > 100 µM (inactive), the GI50 (MOLT-4) was > 100 µM (inactive) and the GI50 (Malme-3M) was > 100 µM (inactive). For the same molecule, the GI50 (NCI-H226) was > 100 µM (inactive), the GI50 (NCI-H23) was > 100 µM (inactive) and the GI50 (NCI-H460) was > 100 µM (inactive). The GI50 (NCI-H522) was > 100 µM (inactive), the GI50 (OVCAR-3) was > 100 µM (inactive) and the GI50 (OVCAR-5) was > 100 µM (inactive). The GI50 (OVCAR-8) was > 100 µM (inactive), the GI50 (PC-3) was > 100 µM (inactive) and the GI50 (RPMI-8226) was > 100 µM (inactive). For the same molecule, the GI50 (SF-268) was > 100 µM (inactive), the GI50 (SF-295) was > 100 µM (inactive) and the GI50 (SF-539) was > 100 µM (inactive). The GI50 (SK-MEL-28) was > 100 µM (inactive), the GI50 (SK-MEL-2) was > 100 µM (inactive) and the GI50 (SK-MEL-5) was > 100 µM (inactive). The GI50 (SN12C) was > 100 µM (inactive), the GI50 (SNB-75) was > 100 µM (inactive) and the GI50 (SR) was > 100 µM (inactive). The GI50 (SW-620) was > 100 µM (inactive), the GI50 (TK-10) was > 100 µM (inactive) and the GI50 (U-251) was > 100 µM (inactive). The GI50 (UACC-257) was > 100 µM (inactive).

With `NC(CN(O)N=O)C(=O)O` (stereo not drawn) [LALANOSINE] the GI50 (A549) was 268 nM (active) and 204 nM (active), the GI50 (ACHN) was 1.42 µM (inactive) and 1.82 µM (inactive) and the GI50 (DU-145) was > 100 µM (inactive). For the same molecule, the GI50 (HL-60) was 11.4 µM (inactive), the GI50 (HT-29) was 10.1 µM (inactive) and 17.7 µM (inactive) and the GI50 (KM12) was 304 nM (active) and 360 nM (active). The GI50 (LOX IMVI) was 412 nM (active) and 333 nM (active), the GI50 (MDA-MB-231) was 87.9 µM (inactive) and the GI50 (MOLT-4) was 40 µM (inactive) and 29.2 µM (inactive). The GI50 (NCI/ADR-RES) was 18.7 µM (inactive), the GI50 (OVCAR-5) was 3.73 µM (inactive) and 4.13 µM (inactive) and the GI50 (OVCAR-8) was 12.5 µM (inactive) and 23.8 µM (inactive). The GI50 (SF-295) was 8.36 µM (inactive) and 8.63 µM (inactive), the GI50 (SF-539) was 8.63 µM (inactive) and the GI50 (SK-MEL-2) was > 100 µM (inactive) and 70 µM (inactive). The GI50 (T47D) was 87.9 µM (inactive).
